{"source": "patent US20030153951A1", "about": "“Methods and devices for treating arrhythmias using defibrillation shocks” (priority 2002, published 2003)", "key": {"[1]": {"experiment": "Systolic blood pressure monitored during the defibrillation threshold study", "assay_type": "in vivo", "settings": "pigs", "excerpt": "(§1) Six healthy pigs (30-35 kg) of either sex were anesthetized, monitored, and maintained under physiologic conditions. See, Chattipakorn et al. (2000). Two catheter-mounted platinum coated titanium coil electrodes were used as defibrillating electrodes. A 34-mm catheter was inserted into the right ventricular (RV) apex and served as the cathode for the first phase of the biphasic shock. […] The position of the catheters was verified with fluoroscopy. The blood pressure and heart rate were monitored continuously throughout the entire study.\nThe defibrillation threshold was determined 4 times during 4 different conditions in this study. The defibrillation threshold in each group was determined using a 3-reversal up/down protocol. See Chattipakorn et al. The first defibrillation threshold was determined at the beginning of the study. This defibrillation threshold was used as a control defibrillation threshold (control-DFT). […] The second defibrillation threshold (drug-DFT) was determined 15 minutes after the application of Flunarizine. After the drug-DFT was obtained, the administration of Flunarizine was terminated while the blood pressure and heart rate were monitored. The third defibrillation threshold (washout-DFT) was determined again when the blood pressure returned to the control level which normally took 60 minutes after the termination of the drug. […]"}, "ventricular fibrillation": {"test_system": "ventricular fibrillation", "experiment": "Defibrillation threshold (3-reversal up/down protocol) after electrically induced ventricular fibrillation in anesthetized pigs", "assay_type": "in vivo", "excerpt": "as §1\nVentricular fibrillation was induced by 60-Hz alternating current delivered via an electrode at the tip of the RV catheter. After 10 seconds of ventricular fibrillation, defibrillation was attempted with 10-ms biphasic truncated exponential shocks. Delivered voltage and current were recorded on a waveform analyzer and total delivered energy was calculated. A minimum of 4 min was allowed to elapse between ventricular fibrillation episodes.\nThe defibrillation threshold was determined 4 times during 4 different conditions in this study. The defibrillation threshold in each group was determined using a 3-reversal up/down protocol. See Chattipakorn et al. The first defibrillation threshold was determined at the beginning of the study. This defibrillation threshold was used as a control defibrillation threshold (control-DFT). Then, Flunarizine, a delayed afterdepolarization inhibitor, was injected intravenously as a bolus (2 mg/kg) and maintenance (4 mg/kg/hr) dose. The second defibrillation threshold (drug-DFT) was determined 15 minutes after the application of Flunarizine. After the drug-DFT was obtained, the administration of Flunarizine was terminated while the blood pressure and heart rate were monitored. The third defibrillation threshold (washout-DFT) was determined again when the blood pressure returned to the control level which normally took 60 minutes after the termination of the drug.\nValues are shown as mean standard deviation. Comparisons of data among different defibrillation threshold groups were performed using an analysis of variance. When statistical significance was found, individual differences were analyzed with a Fisher's post-hoc test. Differences were considered significant when P<0.05."}}, "data": [{"smiles": "Fc1ccc(C(c2ccc(F)cc2)N2CCN(C/C=C/c3ccccc3)CC2)cc1", "note": "[Flunarizine]", "values": [{"measurement": "systolic blood pressure", "setting": "[1]; after i.v. injection (bolus 2 mg/kg + 4 mg/kg/hr), mean ± SD, control 102±11 mmHg", "result": "76±10", "unit": "mmHg"}, {"measurement": "reduction of the systolic blood pressure", "setting": "[1]; vs control", "result": "~26", "unit": "%"}, {"measurement": "washout defibrillation threshold compared with control-DFT", "setting": "ventricular fibrillation; after termination of drug, when blood pressure returned to control level (normally 60 minutes)", "result": "not significantly different from the control-DFT"}, {"measurement": "reduction of the defibrillation threshold by energy", "setting": "ventricular fibrillation; drug-DFT vs control-DFT", "result": "approximately 40%"}, {"measurement": "reduction of the defibrillation threshold by leading edge voltage", "setting": "ventricular fibrillation; drug-DFT vs control-DFT", "result": "approximately 22%"}, {"measurement": "drug-DFT, delivered leading edge voltage", "setting": "ventricular fibrillation; i.v. bolus 2 mg/kg + maintenance 4 mg/kg/hr, determined 15 minutes after application, 10-ms biphasic shocks, mean ± SD, control-DFT 623±120 volts", "result": "485±82", "unit": "volts"}, {"measurement": "drug-DFT, total delivered energy", "setting": "ventricular fibrillation; i.v. bolus 2 mg/kg + maintenance 4 mg/kg/hr, determined 15 minutes after application, mean ± SD, control-DFT 23±4 joules", "result": "14±3", "unit": "joules"}]}]}
